In patent US20030003485A1, “Methods for identifying antigens” (Ludwig Institute for Cancer Research, priority 2001, published 2003):
Ends that are not written are not given here.

How the values were obtained:
Assay type in all cases: cell-based, mouse
AT-1 CTL [1] = assay: Cytotoxicity assay (4 hr 51Cr release) with AT-1 CTL
Description: In FIG. 10A, CMS8 cells were ^51Cr labeled and pulsed with the peptide at different concentrations. Cytotoxicity was determined by 4 hr ^51Cr release assay. Effector to target cell ratio was 10. In FIG. 10B, 1×10^4 AT-1 CTL was stimulated with 1×10^4 CMS8 cells in the presence of the 1.0 μM peptide. IFNγ in the supernatant was measured by ELISA.
Cytotoxicity assay. Tumor cells were labeled by incubating 2×10^6 cells with 2 MBq of Na2^51CrO4 (New England Nuclear, Boston, Mass.) in 0.3 ml of medium for 90 min at 37° C. under a 5% CO2 in air. The cells were washed and used as targets. For peptide sensitization, labeled target cells were incubated with peptides at 37° C. for 30 min […]. In direct assays, 10^4 labeled target cells (100 μl) were incubated with effector cells (100 μl) cells. In antibody blocking assays, serially diluted mAb (100 μl) was added to the mixture of effector cells and 10^4 labeled target cells (100 μl). After incubation for 4 hr at 37° C. under a 5% CO2 in air, the supernatants were removed and their radioactivity was measured. The percentage of specific lysis was calculated by the following equation: (a−b)×100/(c−b), where a is the radioactivity in the supernatant of target cells mixed with effector cells, b is that in the supernatant of target cells incubated alone, and c is that in the supernatant after lysis of target cells with 1% NP-40.

AT-1 CTL [2] = assay: IFNγ ELISA of AT-1 CTL stimulated with transfected or peptide-pulsed CMS8 cells; conditions: 1.0 μM synthetic peptide, 24 hr
Description: FIG. 8 depicts deletion mutants and introduction of point mutations in S35. IFNγ production in the supernatant secreted by AT-1 CTL against various constructs was determined by ELISA after culture for 24 hr with transfected CMS8 cells. PCR fragments with deletion were amplified from S35 cDNA and cloned into pCI-neo vector with EcoR I and Sal I sites. Point mutations at nt 699 (A to C) and nt 701 (G to A) in Exp. III were introduced using site-directed mutagenesis kits.
9-mer overlapping peptides were synthesized in the ORF of the third reading frame (“3RF”) of S35. 1×10^4 AT-1 cells were cultured with 1×10^4 CMS8 cells in the presence of 1.0 μM synthetic peptides for 24 hr and IFNγ in the supernatant was measured by ELISA. H-2D^d peptide motifs are shown as XGPXXXXXL (SEQ ID NO: 26) and XGAXXXXXL (SEQ ID NO:27). The synthetic peptides are MERTPIQLGAEAIFRLVLM (SEQ ID NO:15); MERTPIQLG (SEQ ID NO:16); ERTPIQLGA (SEQ ID NO:17); RTPIQLGAE (SEQ ID NO:18); TPIQLGAEA (SEQ ID NO:19); PIQLGAEAI (SEQ ID NO:20); IQLGAEAIF (SEQ ID NO:21); QLGAEAIFR (SEQ ID NO:22); LGAEAIFRL (SEQ ID NO:10); GAEAIFRLV (SEQ ID NO: 23); AEAIFRLVL (SEQ ID NO:24); and EAIFRLVLM (SEQ ID NO:25).
IFNγ ELISA. CTL were stimulated with targets for 18 hr. and IFNγ in the culture supernatant was assayed by the sandwich ELISA. […]

CTL clone B-24 [3] = assay: IFNγ ELISPOT assay with CTL clone B-24, peptide-pulsed stimulator cells and antibody blocking; conditions: 5,000 B-24 cells, 10,000 CMS8 stimulator cells pulsed with peptide, 96-well plates
Description: ELISPOT assay. […] CTL were incubated with stimulator cells on the coated membrane in 96- or 24-well plates for 18 hr at 37° C. under 5% CO2 in air. After culture, the membranes were thoroughly washed with distilled water and incubated with detection antibody for 90 min at 37° C. The IFNγ spots were developed by alkaline phosphatase-conjugated substrate kit (Bio-Rad, Hercules, Calif.) and counted with a dissecting microscope.

CTL clone B-24 [4] = assay: Cytotoxicity assay (51Cr release) with CTL clone B-24; conditions: peptide pulsed P1.HTR target cells
Description: Cytotoxicity assay. Tumor cells were labeled by incubating 2×10^6 cells with 2 MBq of Na2^51CrO4, (New England Nuclear, Boston, Mass.) in 0.3 ml of medium for 90 min at 37° C. under 5% CO2 in air. The cells were washed and used as targets. […] In antibody blocking assays, serially diluted mAb (100 μl) was added to the mixture of effector cells and 10^4 labeled target cells (100 μl). After incubation for 3.5 hr at 37° C. under 5% CO2 in air, the supernatants were removed and their radioactivity was measured. The percentage of specific lysis was calculated by the following equation: (a-b)/(c-b)×100, where a is the radioactivity in the supernatant of target cells mixed with effector cells, b is the radioactivity in the supernatant of target cells incubated alone, and c is the radioactivity in the supernatant after lysis of target cells with 1% NP-40.

AT-1 CTL [5] = assay: IFNγ ELISPOT assay with AT-1 CTL
Source text: Transfection. Recombinant plasmids were purified by Wizard Plus Series 9600™ DNA purification system (Promega, Co., Madison, Wis.) after amplification of bacteria and transfected into 1×10^5 or 1×10^4 cells 24- or 96-well plates, respectively, with plasmid pdl3027 containing the polyoma T antigen (Dailey and Basilico, J. Virol. 54:739-749, 1985) using lipofectamine (GIBCO BRL, Rockville, Md.). After culture for 24 hr, the transfected cells were collected and plated onto anti-IFNγ mAb-coated nitrocellulose membranes in culture plates. AT-1 CTL were then added for ELISPOT assay.
ELISPOT assay. Nitrocellulose disk membranes (14 mm diameter) and 96-well nitrocellulose membrane-based plates (Millipore S4510, Millipore Corp., Bedford, Mass.) were coated with anti-IFNγ mAb (R4-6A2) in 0.05 M bicarbonate buffer (pH 9.6) at 4° C. overnight. After washing, membranes were blocked with RPMI 1640 containing 10% FCS and 50 μM 2-mercaptoethanol for 60 min at 37° C. CTL were incubated with stimulator cells on the coated membrane in 24- or -96well plates for 18 hr at 37° C. under a 5% CO2 in air. […] The IFNγ spots were developed by alkaline phosphatase-conjugated anti-rabbit IgG antibody and substrate kit (Bio-Rad, Hercules, Calif.) and counted with a dissecting microscope.

For LGAEAIFRL (listed as Mus musculus), the “inhibition of Meth A (sv) lysis by AT-1 CTL by peptide pulsed P815” value (AT-1 CTL [1]) was “completely inhibited”, the “peptide concentration at which AT-1 CTL lysis of peptide pulsed CMS8 was detected” value (AT-1 CTL [1]; 4 hr 51Cr release, effector to target cell ratio 10) was 20 to 30 nM and the “stimulation of AT-1 for IFNγ production by peptide pulsed CMS8 cells” value (AT-1 CTL [2]) was “stimulation was observed”.

LSPFPFDL [p2Ca] was tested, and the “number of IFNγ spots” value (CTL clone B-24 [3]) was “no spot”.

In the case of IPGLPLSL [pRL1a, IPGLPLSL], the “cytotoxicity of B-24 against peptide pulsed P1.HTR” value (CTL clone B-24 [4]) is reported as “showed cytotoxicity”.

In the case of “ISTQNHRALDLVA (listed as Mus musculus) [T2H]”, the “number of IFNγ spots” value (CTL clone B-24 [3]) is reported as “no spot”.

B1: S35: cDNA clone, 937 bp long, from Meth A (sv) cDNA library, coding for antigen recognized by AT-1 (nucleic acid, listed as Mus musculus)
DNA: TTAAAAGGGAGATGGAAAGGACTCCAATCCAATTAGGGGCAGAAGCTATCTTTAGACTAGTACTAATGTGGTGAGTATCCTGCCTCACTTAACATCCTTAACCTAGCCTGTGCTTCAGGGAAAGGAAACAAAAGATAGATATATAAAGGCTATTTACTCTGCAAGCCAAACCAAAATTTTGGTACAGAAAATGACAAAGTTTCTTTTTCTCAATAGTAGGAATGTTCTGTGTTCCTAGCCAAAAATTTGTCATCAGTGTCCCTGTGGCTCCCATCTGTCTTTCCTGACCCCCATGATTACTTTTCACTGACAATATAAATCTTAAAAAGCTTTGAGACCAGTGTGCTGATCTAGTTTTTTAAGTTTTGGGTTTTGTTGTTGTGTTTTGGTTTTGGTGTTTTTACGTTTTATTGACTTACAAGCTTTCACTATGTATCCCAGACTGGCTTTGAACTCAGGACCTTCCTGCCTTAGTCTCCCAGGTGCTGAGATTGTGGGGCTGTGTCACTATATTACAACTAATATTTATCAGAAAAATGTTCCTTTTTTGGAAGAAAATGAAGAAAGTGCTGTTTTTGCACTTATCAATTGAGGGGCTGATTTTGATTCGCTCAAGAAAATAGCAGTTTTAACCTAGACATTTGCTGTGGGGACTTGGAACTTTAACTTGGGGTGTCGCTAACTCTACGCTTTCTTCTAGGTCACCATTACTCCCAGCTCCATGAGGAAGATATGTACATACTTTCGTAGAAAGACTCAAGATGACTTCTGCAGTCCTGAACACTCAACTGAATTATAGATGCTAATCTGAAGTTCATTGAACTTGGGTCTACAAAGATTTTTTAAAAAGGCTTTAAAATTCTGGTCTTTAAGAAAATGGTCATCTTTTCATTTTGGAAAAAGTCCTTCTACTCTTTAGCAGACCTAGTCAGGCCCC
B1 was tested, and the “stimulation of AT-1 by cells transfected with cDNA clone” value (AT-1 CTL [5]; CMS5a, CMS8 and CMS13, or H-2D^d-transfected L cells) was “stimulated” and the “stimulation of AT-1 by cells transfected with cDNA clone” value (AT-1 CTL [5]; H-2L^d-transfected L cells) was “not”.
